The record followed here is patent US20240166664A1, “TRIHETEROCYCLIC COMPOUND, PREPARATION METHOD THEREFOR, AND APPLICATION THEREOF” (SHANGHAI APEIRON THERAPEUTICS COMPANY LIMITED, priority 2021, published 2024).

For one assay, the system named is NCI-H1373 cells. The experiment in a line: Cell proliferation inhibition assay (CTG method). The format is cell-based, human. Conditions: NCI-H1373 cells, 6 days incubation, CTG method, read-out: IC50 (nM) for NCI-H1373 cell viability.
Another assay addresses T1, PARP7 (Homo sapiens, UniProt Q7Z3E1).
T1 construct: purchased BPS 80527
T1 sequence (Q7Z3E1 1-657): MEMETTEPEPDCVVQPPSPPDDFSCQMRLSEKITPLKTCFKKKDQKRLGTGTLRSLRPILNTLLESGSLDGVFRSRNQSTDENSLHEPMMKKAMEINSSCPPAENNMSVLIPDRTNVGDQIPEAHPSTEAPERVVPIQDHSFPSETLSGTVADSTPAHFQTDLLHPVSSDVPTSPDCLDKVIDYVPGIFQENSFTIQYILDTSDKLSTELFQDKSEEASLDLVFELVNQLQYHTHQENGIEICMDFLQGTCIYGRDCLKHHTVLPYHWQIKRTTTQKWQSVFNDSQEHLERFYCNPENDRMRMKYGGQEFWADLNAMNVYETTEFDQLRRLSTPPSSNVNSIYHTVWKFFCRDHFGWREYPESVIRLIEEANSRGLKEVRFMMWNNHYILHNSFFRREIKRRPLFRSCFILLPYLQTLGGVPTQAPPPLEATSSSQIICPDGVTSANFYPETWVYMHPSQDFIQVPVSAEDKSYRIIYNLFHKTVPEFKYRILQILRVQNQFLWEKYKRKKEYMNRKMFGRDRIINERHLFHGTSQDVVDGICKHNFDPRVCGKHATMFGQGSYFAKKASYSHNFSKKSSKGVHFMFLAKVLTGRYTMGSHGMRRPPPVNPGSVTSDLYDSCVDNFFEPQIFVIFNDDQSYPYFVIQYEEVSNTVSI
The experiment in a line: Test of inhibitory activity against PARP7 enzyme (PARP7 FLAG-tag, Probe A, time-resolved fluorescence). The format is biochemical. As to conditions: PARP7 12 nM, Probe A 2 nM, 1 hr room temperature.

Like-named read-outs stand apart in the source and are kept apart here.

The IC50 is the concentration that gives 50% inhibition. Take `C[C@@H](COCCC(=O)N1CCN2C(=O)c3ncc(C(F)(F)F)cc3OC[C@@H]2C1)Nc1cn[nH]c(=O)c1C(F)(F)F` [Compound 17, (S)-8-(3-((S)-2-((6-oxo-5-(trifluoromethyl)-1,6-dihydropyridazin-4-yl)amino)propoxy)propionyl)-3-(trifluoromethyl)-6,6a, 7,8,9,10-hexahydro-12H-pyrazino[2,1-c]pyrido[2,3-f][1,4]oxazepin-12-one]: the IC50 was more than 5000 nM in the assay on NCI-H1373 cells (Homo sapiens, NCI-H1373, 144 h) and 10 to 100 nM at PARP7.
In the same order, the values of `C[C@@H](COCCC(=O)N1CCN2Cc3ncc(C(F)(F)F)cc3OC[C@H]2C1)Nc1cn[nH]c(=O)c1C(F)(F)F` [Compound 18, 5-(((S)-1-(3-oxo-3-((R)-3-(trifluoromethyl)-6a, 7,9,10-tetrahydro-12H-pyrazino[2,1-c]pyrido[2,3-f][1,4]oxazepin-8(6H)-yl)propoxy)prop-2-yl)amino)-4-(trifluoromethyl)pyridazin-3(2H)-one] are more than 5000 nM and 10 to 100 nM.
The corresponding values for `C[C@@H](COCCC(=O)N1CCN2c3ncc(C(F)(F)F)cc3CNC[C@H]2C1)Nc1cn[nH]c(=O)c1C(F)(F)F` [Compound 10] are 100 to 500 nM and less than 10 nM.
The corresponding values for `C[C@@H](COCCC(=O)N1CCN2c3ncc(C(F)(F)F)nc3OC[C@H]2C1)Nc1cn[nH]c(=O)c1C(F)(F)F` [Compound 14] are 100 to 500 nM and less than 10 nM.
In the case of `C[C@@H](COCCC(=O)N1CCN2C(=O)c3ncc(C(F)(F)F)cc3OC[C@H]2C1)Nc1cn[nH]c(=O)c1C(F)(F)F` [Compound 16, (R)-8-(3-((S)-2-((6-oxo-5-(trifluoromethyl)-1,6-dihydropyridazin-4-yl)amino)propoxy)propionyl)-3-(trifluoromethyl)-6,6a, 7,8,9,10-hexahydro-12H-pyrazino[2,1-c]pyrido[2,3-f][1,4]oxazepin-12-one], the half-maximal inhibitory concentration (IC50) in the assay on NCI-H1373 cells (Homo sapiens, NCI-H1373, 144 h) was more than 5000 nM; against PARP7, 10 to 100 nM.
With `C[C@@H](COCCC(=O)N1CCN2c3ncc(C(F)(F)F)cc3C(=O)CC2C1)Nc1cn[nH]c(=O)c1C(F)(F)F` (stereo partly drawn) [Compound 37, 8-(3-((S)-2-((6-oxo-5-(trifluoromethyl)-1,6-dihydropyridazin-4-yl)amino)propoxy)propionyl)-3-(trifluoromethyl)-6,6a, 7,8,9,10-hexahydro-5H-pyrazino[1,2-a][1,8]naphthyridin-5-one], the 50% inhibitory concentration (IC50) in the assay with NCI-H1373 cells (Homo sapiens, NCI-H1373, 144 h) is 100 to 500 nM; against PARP7, less than 10 nM.
The corresponding values for `C[C@@H](COCCC(=O)N1CCN2c3ncc(C(F)(F)F)nc3OC[C@@H]2C1)Nc1cn[nH]c(=O)c1C(F)(F)F` [Compound 34, 5-(((S)-1-(3-oxo-3-((S)-3-(trifluoromethyl)-6a, 7,9,10-tetrahydrobipyrazino[2,3-b: 1′,2′-d][1,4]oxazin-8(6H)-yl)propoxy)prop-2-yl)amino)-4-(trifluoromethyl)pyridazin-3(2H)-one] are 500 to 5000 nM and less than 10 nM.
For the compound `C[C@@H](COCCC(=O)N1CCN2c3ncc(C(F)(F)F)nc3OCC[C@H]2C1)Nc1cn[nH]c(=O)c1C(F)(F)F` [Compound 47, 5-(((S)-1-(3-oxo-3-((S)-3-(trifluoromethyl)-6,7,7a, 8, 10, 11-hexahydro-9H-bipyrazino[2,3-b:1′, 2′-d][1, 4]oxazepane-9-yl)propoxy)prop-2-yl)amino)-4-(trifluoromethyl)pyridazin-3(2H)-one], the 50% inhibitory concentration (IC50) was less than 100 nM in the assay with NCI-H1373 cells (Homo sapiens, NCI-H1373, 144 h) and less than 10 nM against PARP7.
In the same order, the values of `Cc1nc2c(cc1C(F)(F)F)COC[C@H]1CN(C(=O)CCOC[C@H](C)Nc3cn[nH]c(=O)c3C(F)(F)F)CCN21` [Compound 31] are 500 to 5000 nM and less than 10 nM.
The corresponding values for `C[C@@H](COCCC(=O)N1CCN2c3ncc(C(F)(F)F)cc3OC[C@H]2C1)Nc1cn[nH]c(=O)c1C(F)(F)F` [Compound 1, 5-(((S)-1-(3-oxo-3-((R)-3-(trifluoromethyl)-6a, 7,9,10-tetrahydropyrazino[1,2-d]pyrido[3,2-b][1,4]oxazin-8(6H)-yl)propoxy)prop-2-yl)amino)-4-(trifluoromethyl)pyridazin-3(2H)-one] are less than 100 nM and less than 10 nM.
Regarding `C[C@@H]1CN2c3ncc(C(F)(F)F)cc3COC[C@H]2CN1C(=O)CCOC[C@H](C)Nc1cn[nH]c(=O)c1C(F)(F)F` [Compound 25, 5-(((S)-1-(3-((6aR,9R)-9-methyl-3-(trifluoromethyl)-6a, 7,9,10-tetrahydropyrazino[1,2-d]pyrido[3,2-b][1,4]oxazin-8(6H)-yl)-3-oxypropoxy)prop-2-yl)amino)-4-(trifluoromethyl)pyridazin-3(2H)-one], the concentration for half-maximal inhibition (IC50) in the assay on NCI-H1373 cells (Homo sapiens, NCI-H1373, 144 h) was 100 to 500 nM; on PARP7, less than 10 nM.
As to `C[C@@H](COCCC(=O)N1CCN2c3ncc(C(F)(F)F)cc3NCC[C@H]2C1)Nc1cn[nH]c(=O)c1C(F)(F)F` [Compound 35, 5-(((S)-1-(3-oxo-3-((S)-3-(trifluoromethyl)-6,7,7a, 8,10,11-hexahydropyrazino[1,2-d]pyrido[3,2-b][1,4]diazepine-9(5H)-yl)propoxy)prop-2-yl)amino)-4-(trifluoromethyl)pyridazin-3(2H)-one], the IC50 in the assay with NCI-H1373 cells (Homo sapiens, NCI-H1373, 144 h) was less than 100 nM; against PARP7 it was less than 10 nM.
In the same order, the values of `CC(COCC(O)C(=O)N1CCN2c3ncc(C(F)(F)F)cc3COCC2C1)Nc1cn[nH]c(=O)c1C(F)(F)F` (single isomer, unassigned) [Compound 55] are less than 100 nM and less than 10 nM.
For the compound `CC(COCC(O)C(=O)N1CCN2c3ncc(C(F)(F)F)cc3COCC2C1)Nc1cn[nH]c(=O)c1C(F)(F)F` (single isomer, unassigned) [Compound 56], the IC50 is 100 to 500 nM in the assay with NCI-H1373 cells and less than 10 nM at PARP7.
For the compound `C[C@@H](COCCC(=O)N1CCN2c3ncc(C(F)(F)F)cc3CC[C@H]2C1)Nc1cn[nH]c(=O)c1C(F)(F)F` (single isomer, unassigned) [Compound 45], the IC50 was less than 100 nM in the assay on NCI-H1373 cells (Homo sapiens, NCI-H1373, 144 h) and less than 10 nM on PARP7.
In the same order, the values of `C[C@@H](COCCC(=O)N1CCN2c3ncc(C(F)(F)F)cc3C(F)(F)C[C@H]2C1)Nc1cn[nH]c(=O)c1C(F)(F)F` (single isomer, unassigned) [Compound 63] are 500 to 5000 nM and less than 10 nM.
The corresponding values for `C[C@@H](COCCC(=O)N1CCN2c3nc(N)c(C(F)(F)F)cc3COC[C@H]2C1)Nc1cn[nH]c(=O)c1C(F)(F)F` [Compound 77, 5-(((S)-1-(3-((R)-2-amino-3-(trifluoromethyl)-7a, 8, 10, 11-tetrahydro-5H-pyrazino[2,1-c]pyrido[2,3-e][1, 4]oxazepane-9(7H)-yl)-3-oxypropoxy)prop-2-yl)amino)-4-(trifluoromethyl)pyridazin-3(2H)-one] are more than 5000 nM and less than 10 nM.
The corresponding values for `C[C@@H](COCCC(=O)N1CCN2c3ncc(C(F)(F)F)cc3NC[C@H]2C1)Nc1cn[nH]c(=O)c1C(F)(F)F` [Compound 9] are 500 to 5000 nM and less than 10 nM.
With `C[C@@H](COCCC(=O)N1CCN2c3ncc(C(F)(F)F)cc3C(O)CC2C1)Nc1cn[nH]c(=O)c1C(F)(F)F` (some centres unmarked) [Compound 38], the half-inhibitory concentration (IC50) in the assay on NCI-H1373 cells (Homo sapiens, NCI-H1373, 144 h) is 100 to 500 nM; on PARP7, less than 10 nM.
